Results reported in patent publication US6673791B2, “Non-nucleoside reverse transcriptase inhibitors” (Boehringer Ingelheim (Canada) Ltd., priority 2001, dated 2004).
pIC50: −log10 of the molar value.

Tested on: K103N/Y181C (HIV-1 double mutant strain)
Test: EC50 assay, K103N/Y181C strain
Format: cell-based
Conditions: Human immunodeficiency virus 1, read-out: EC50 K103N/Y181C (nM), K103N/Y181C double mutant
Description: (§1) Reverse TranscriptASE (RT) Assays
(§2) The assays are as described in WO 01/96338A1, the contents of which are hereby incorporated herein. The results are listed in Tables 8 as IC50(nM) and EC50(nM).

SMILES | EC50 [nM]
CCN1c2ncc(CCOc3ccc(CC(=O)O)c4ccccc34)cc2C(=O)N(C)c2ccc(F)nc21 [Entry 1009] | < 100
CCN1c2ncc(CCOc3ccc(/C=C/C(=O)O)c4ccccc34)cc2C(=O)Nc2c(C)cc(Cl)nc21 [Entry 1030] | < 100
CCN1c2ncc(CCOc3ccc(CCC(=O)O)c4ccccc34)cc2C(=O)N(C)c2ccc(Cl)nc21 [Entry 1022] | < 100
CCN1c2ncc(CCOc3ccc(/C=C(\C)C(=O)O)c4ccccc34)cc2C(=O)N(C)c2cccnc21 [Entry 1035] | < 100
CCN1c2ncc(CCOc3cccc4c(S(=O)(=O)NCC(=O)O)cccc34)cc2C(=O)N(C)c2cccnc21 [Entry 2008] | 100 to 1000
CCN1c2ncc(CCOc3ccc(/C=C(\C)C(=O)O)c4ccccc34)cc2C(=O)N(C)c2ccc(Cl)nc21 [Entry 1036] | < 100
CCN1c2ncc(CCOc3ccc(C(=O)O)c4c3CCN(C(=O)N(C)C)C4)cc2C(=O)N(C)c2cccnc21 [Entry 7007] | < 100

Molecular target: T1, Y188L mutant RT (HIV-1 RT) (Human immunodeficiency virus type 1 group M subtype B, UniProt P03366, Y787L)
T1 construct: mutations that occur in the reverse transcriptase segment of the pol gene
Test: biochemical
Conditions: IC50 Y188L (nM)
Description: (§3) Based upon testing of these compounds, as described below, it is known that they inhibit the RNA-dependent DNA polymerase activity of HIV-1 RT. […] Utilising the Reverse Transcriptase (RT) Assay described below, compounds can be tested for their ability to inhibit the RNA-dependent DNA polymerase activity of HIV-1 RT. Certain specific compounds described in the Examples which appear below, were so tested. The results of this testing appear in Table 4 as IC50 (nM) and Table 5 as EC50 (nM).
as §1, §2

SMILES | IC50 [nM]
CCN1c2ncc(CCOc3ccc(CC(=O)O)c4ccccc34)cc2C(=O)N(C)c2ccc(F)nc21 [Entry 1009] | > 1000
CCN1c2ncc(CCOc3ccc(/C=C/C(=O)O)c4ccccc34)cc2C(=O)Nc2c(C)cc(Cl)nc21 [Entry 1030] | > 1000
CCN1c2ncc(CCOc3ccc(CCC(=O)O)c4ccccc34)cc2C(=O)N(C)c2ccc(Cl)nc21 [Entry 1022] | > 1000
CCN1c2ncc(CCOc3ccc(/C=C(\C)C(=O)O)c4ccccc34)cc2C(=O)N(C)c2cccnc21 [Entry 1035] | > 1000
CCN1c2ncc(CCOc3cccc4c(S(=O)(=O)NCC(=O)O)cccc34)cc2C(=O)N(C)c2cccnc21 [Entry 2008] | 100 to 1000
CCN1c2ncc(CCOc3ccc(/C=C(\C)C(=O)O)c4ccccc34)cc2C(=O)N(C)c2ccc(Cl)nc21 [Entry 1036] | > 1000
CCN1c2ncc(CCOc3ccc(C(=O)O)c4c3CCN(C(=O)N(C)C)C4)cc2C(=O)N(C)c2cccnc21 [Entry 7007] | 100 to 1000

Molecular target: T2, K103N/Y181C double mutant RT (HIV-1 RT) (Human immunodeficiency virus type 1 group M subtype B, UniProt P03366, K702N/Y780C)
T2 construct: mutations that occur in the reverse transcriptase segment of the pol gene
Test: biochemical
Conditions: not given
Description: as §3, §1, §2

SMILES | pIC50
CCN1c2ncc(CCOc3ccc(CC(=O)O)c4ccccc34)cc2C(=O)N(C)c2ccc(F)nc21 [Entry 1009] | 6.00 to 7.00
CCN1c2ncc(CCOc3ccc(/C=C/C(=O)O)c4ccccc34)cc2C(=O)Nc2c(C)cc(Cl)nc21 [Entry 1030] | 6.00 to 7.00
CCN1c2ncc(CCOc3ccc(CCC(=O)O)c4ccccc34)cc2C(=O)N(C)c2ccc(Cl)nc21 [Entry 1022] | 6.00 to 7.00
CCN1c2ncc(CCOc3ccc(/C=C(\C)C(=O)O)c4ccccc34)cc2C(=O)N(C)c2cccnc21 [Entry 1035] | 6.00 to 7.00
CCN1c2ncc(CCOc3cccc4c(S(=O)(=O)NCC(=O)O)cccc34)cc2C(=O)N(C)c2cccnc21 [Entry 2008] | > 7.00
CCN1c2ncc(CCOc3ccc(/C=C(\C)C(=O)O)c4ccccc34)cc2C(=O)N(C)c2ccc(Cl)nc21 [Entry 1036] | 6.00 to 7.00
CCN1c2ncc(CCOc3ccc(C(=O)O)c4c3CCN(C(=O)N(C)C)C4)cc2C(=O)N(C)c2cccnc21 [Entry 7007] | > 7.00

Molecular target: T3, V106A mutant RT (HIV-1 RT) (Human immunodeficiency virus type 1 group M subtype B, UniProt P03366, V705A)
T3 construct: mutations that occur in the reverse transcriptase segment of the pol gene
Test: biochemical
Conditions: IC50 V106A (nM)
Description: as §3, §1, §2

SMILES | IC50 [nM]
CCN1c2ncc(CCOc3ccc(CC(=O)O)c4ccccc34)cc2C(=O)N(C)c2ccc(F)nc21 [Entry 1009] | > 1000
CCN1c2ncc(CCOc3ccc(/C=C/C(=O)O)c4ccccc34)cc2C(=O)Nc2c(C)cc(Cl)nc21 [Entry 1030] | < 100
CCN1c2ncc(CCOc3ccc(CCC(=O)O)c4ccccc34)cc2C(=O)N(C)c2ccc(Cl)nc21 [Entry 1022] | 100 to 1000
CCN1c2ncc(CCOc3ccc(/C=C(\C)C(=O)O)c4ccccc34)cc2C(=O)N(C)c2cccnc21 [Entry 1035] | > 1000
CCN1c2ncc(CCOc3cccc4c(S(=O)(=O)NCC(=O)O)cccc34)cc2C(=O)N(C)c2cccnc21 [Entry 2008] | 100 to 1000
CCN1c2ncc(CCOc3ccc(/C=C(\C)C(=O)O)c4ccccc34)cc2C(=O)N(C)c2ccc(Cl)nc21 [Entry 1036] | 100 to 1000
CCN1c2ncc(CCOc3ccc(C(=O)O)c4c3CCN(C(=O)N(C)C)C4)cc2C(=O)N(C)c2cccnc21 [Entry 7007] | 100 to 1000

Molecular target: T4, WT RT (HIV-1 RT) (Human immunodeficiency virus type 1 group M subtype B, UniProt P03366)
T4 construct: mutations that occur in the reverse transcriptase segment of the pol gene
Test: biochemical
Conditions: not given
Description: as §3, §1, §2

SMILES | pIC50
CCN1c2ncc(CCOc3ccc(CC(=O)O)c4ccccc34)cc2C(=O)N(C)c2ccc(F)nc21 [Entry 1009] | > 7.00
CCN1c2ncc(CCOc3ccc(/C=C/C(=O)O)c4ccccc34)cc2C(=O)Nc2c(C)cc(Cl)nc21 [Entry 1030] | > 7.00
CCN1c2ncc(CCOc3ccc(CCC(=O)O)c4ccccc34)cc2C(=O)N(C)c2ccc(Cl)nc21 [Entry 1022] | > 7.00
CCN1c2ncc(CCOc3ccc(/C=C(\C)C(=O)O)c4ccccc34)cc2C(=O)N(C)c2cccnc21 [Entry 1035] | > 7.00
CCN1c2ncc(CCOc3cccc4c(S(=O)(=O)NCC(=O)O)cccc34)cc2C(=O)N(C)c2cccnc21 [Entry 2008] | > 7.00
CCN1c2ncc(CCOc3ccc(/C=C(\C)C(=O)O)c4ccccc34)cc2C(=O)N(C)c2ccc(Cl)nc21 [Entry 1036] | > 7.00
CCN1c2ncc(CCOc3ccc(C(=O)O)c4c3CCN(C(=O)N(C)C)C4)cc2C(=O)N(C)c2cccnc21 [Entry 7007] | > 7.00

Tested on: WT RT (HIV-1 wild type strain)
Test: EC50 assay, WT RT strain
Format: cell-based
Conditions: Human immunodeficiency virus 1, read-out: EC50 WT RT (nM)
Description: as §1, §2

SMILES | EC50 [nM]
CCN1c2ncc(CCOc3ccc(CC(=O)O)c4ccccc34)cc2C(=O)N(C)c2ccc(F)nc21 [Entry 1009] | < 100
CCN1c2ncc(CCOc3ccc(/C=C/C(=O)O)c4ccccc34)cc2C(=O)Nc2c(C)cc(Cl)nc21 [Entry 1030] | < 100
CCN1c2ncc(CCOc3ccc(CCC(=O)O)c4ccccc34)cc2C(=O)N(C)c2ccc(Cl)nc21 [Entry 1022] | < 100
CCN1c2ncc(CCOc3ccc(/C=C(\C)C(=O)O)c4ccccc34)cc2C(=O)N(C)c2cccnc21 [Entry 1035] | < 100
CCN1c2ncc(CCOc3cccc4c(S(=O)(=O)NCC(=O)O)cccc34)cc2C(=O)N(C)c2cccnc21 [Entry 2008] | 100 to 1000
CCN1c2ncc(CCOc3ccc(/C=C(\C)C(=O)O)c4ccccc34)cc2C(=O)N(C)c2ccc(Cl)nc21 [Entry 1036] | < 100
CCN1c2ncc(CCOc3ccc(C(=O)O)c4c3CCN(C(=O)N(C)C)C4)cc2C(=O)N(C)c2cccnc21 [Entry 7007] | < 100
